Measured values: US20060046968A1, “Prodrug substituted benzoxazoles as estrogenic agents” (priority 2004, published 2006)

Legend:
Format in all cases: in vivo
[1] = system: Sexually immature Sprague-Dawley rats; assay: Rat uterotrophic test procedure (Procedure 1); details: compound 2 mg/rat + 17α-ethinyl, 17β-estradiol 0.06 μg/rat s.c. (antagonist mode)
[2] = system: Sexually immature 129 SvE mice; assay: Mouse uterotrophic test procedure (Procedure 2); details: compound 20 mg/kg s.c., days 22-25
[3] = system: ovariectomized Sprague-Dawley rats; assay: Bone mineral density in the ovariectomized rat (pQCT, proximal tibia); details: compound 10 mg/kg s.c.; 5 weeks
Male HLA-B27 rats [4] = assay: HLA rat test for inflammatory bowel disease: stool character (3 = diarrhea; 2 = soft stool; 1 = normal stool); details: Study C
Male HLA-B27 rats [5] = assay: HLA-B27 rat test for inflammatory bowel disease: histological scoring of colon; details: Study C
Procedure: Representative metabolites of compounds of the invention were evaluated in the HLA rat standard pharmacological test procedure, which emulates inflammatory bowel disease in humans. The following briefly describes the procedure used and results obtained. […] Louis) and water. Stool quality was observed daily and graded according to the following scale: Diarrhea=3; soft stool=2; normal stool=1. At the end of the study, serum was collected and stored at −70° C. A section of colon was prepared for histological analysis and an additional segment was analyzed for myeloperoxidase activity. In Study A, rats (22-26 weeks old) were dosed subcutaneously once per day for seven days with one of the regimens listed below. […] Histological analysis. Colonic tissue was immersed in 10% neutral buffered formalin. Each specimen of colon was separated into four samples for evaluation. The formalin-fixed tissues were processed in a Tissue-Tek® vaccum infiltration processor (Miles, Inc; West Haven, Conn.) for paraffin embedding. The samples were sectioned at 5 μm and then stained with hematoxylin and eosin (H&E) for blinded histological evaluations using a scale modified after Boughton-Smith. After the scores were completed, the samples were unblinded, and data were tabulated and analyzed by ANOVA linear modeling with multiple mean comparisons. Sections of colonic tissue were evaluated for several disease indicators and given relative scores.

Male HLA-B27 rats [6] = assay: HLA-B27 rat model of arthritis: joint scores; details: Study 1, oral 20 mg/kg once per day (10 mg/kg earlier)
Male HLA-B27 rats [7] = assay: HLA-B27 rat model of arthritis: joint histology; details: Study 1; oral 46 days; 10 mg/kg days 1-18, then 20 mg/kg
Procedure: At the end of the study, the rats are euthanized with CO2, hindlimbs removed at necropsy and fixed in 10% buffered formalin, and the tarsal joints decalcified and embedded in paraffin. Histologic sections are stained with Hematoxylin and Eosin or […] Green stain. Slides are coded so that the examiner is blinded to the treatment groups. Synovial tissue from tarsal joints is evaluated based on synovial hyperplasia, inflammatory cell infiltration, and pannus formation [Poole and Coombs, International Archives of Allergy & Applied Immunology 54: 97-113 (1977)], as outlined below. [table] […] [table] Representative metabolites of compounds of the invention were evaluated in the HLA-B27 rat standard pharmacological test procedure, which emulates arthritis in humans. The following briefly describes the procedure used and results obtained. Male HLA-B27 rats were obtained from Taconic and provided unrestricted access to a food (PMI® LabDiet 5001) and water. Joint scores and histology were evaluated as described above for the Lewis rat model of adjuvant-induced arthritis. Study 1: […]

[8] = oral 7 weeks, 10 mg/kg days 1-18, then 20 mg/kg

Q: How did the “mean uterine weight ± SEM” value [1] turn out when `Oc1cc(Br)c2oc(-c3ccc(O)c(F)c3)nc2c1` [Example 21, 7-BROMO-2-(3-FLUORO-4-HYDROXYPHENYL)-1,3-BENZOXAZOL-5-OL] was run?
A: 93.9 ± 5.9 mg

Q: And the “mean uterine weight ± SEM” value [2]?
A: 12.1 ± 1.7 mg

Q: What about the “Total Bone Mineral Density (mean ± SEM)” value [3] of the same compound?
A: 501.40 ± 11.97 mg/mL

Q: And the “Trabecular Bone Mineral Density (mean ± SEM)” value [3]?
A: 312.34 ± 19.73 mg/mL

Q: And the “Stool Character (group's average score)” value (Male HLA-B27 rats [4]; oral 10 mg/kg once per day, Day 1)?
A: 2.75

Q: What about the “Stool Character (group's average score)” value (Male HLA-B27 rats [4]; oral 10 mg/kg once per day, Day 3) of the same compound?
A: 2.75

Q: What about the “Stool Character (group's average score)” value (Male HLA-B27 rats [4]; oral 10 mg/kg once per day, Day 4) of the same compound?
A: 2.75

Q: And the “Stool Character (group's average score)” value (Male HLA-B27 rats [4]; oral 10 mg/kg once per day, Day 5)?
A: 2.75

Q: What about the “Stool Character (group's average score)” value (Male HLA-B27 rats [4]; oral 10 mg/kg once per day, Day 6) of the same compound?
A: 2.5

Q: What about the “Stool Character (group's average score)” value (Male HLA-B27 rats [4]; oral 10 mg/kg once per day, Day 7) of the same compound?
A: 2.5

Q: And the “Stool Character (group's average score)” value (Male HLA-B27 rats [4]; oral 10 mg/kg once per day, Day 8)?
A: 2.75

Q: And the “Stool Character (group's average score)” value (Male HLA-B27 rats [4]; oral 10 mg/kg once per day, Day 9)?
A: 2.5

Q: What about the “Stool Character (group's average score)” value (Male HLA-B27 rats [4]; oral 10 mg/kg once per day, Day 10) of the same compound?
A: 2.75

Q: What about the “Stool Character (group's average score)” value (Male HLA-B27 rats [4]; oral 10 mg/kg once per day, Day 11) of the same compound?
A: 2.5

Q: And the “Stool Character (group's average score)” value (Male HLA-B27 rats [4]; oral 10 mg/kg once per day, Day 12)?
A: 2.5

Q: What about the “Stool Character (group's average score)” value (Male HLA-B27 rats [4]; oral 10 mg/kg once per day, Day 13) of the same compound?
A: 2.5

Q: And the “Stool Character (group's average score)” value (Male HLA-B27 rats [4]; oral 10 mg/kg once per day, Day 14)?
A: 2.5

Q: What about the “Stool Character (group's average score)” value (Male HLA-B27 rats [4]; oral 10 mg/kg once per day, Day 15) of the same compound?
A: 2.5

Q: And the “Stool Character (group's average score)” value (Male HLA-B27 rats [4]; oral 10 mg/kg once per day, Day 16)?
A: 2.5

Q: And the “Stool Character (group's average score)” value (Male HLA-B27 rats [4]; oral 10 mg/kg once per day, Day 17)?
A: 2.5

Q: And the “Stool Character (group's average score)” value (Male HLA-B27 rats [4]; oral 10 mg/kg once per day, Day 18)?
A: 2.5

Q: And the “Stool Character (group's average score)” value (Male HLA-B27 rats [4]; oral 20 mg/kg once per day (10 mg/kg days 1-18), Day 19)?
A: 2.75

Q: And the “Stool Character (group's average score)” value (Male HLA-B27 rats [4]; oral 20 mg/kg once per day (10 mg/kg days 1-18), Day 20)?
A: 2.5

Q: And the “Stool Character (group's average score)” value (Male HLA-B27 rats [4]; oral 20 mg/kg once per day (10 mg/kg days 1-18), Day 21)?
A: 2.75

Q: What about the “Stool Character (group's average score)” value (Male HLA-B27 rats [4]; oral 20 mg/kg once per day (10 mg/kg days 1-18), Day 22) of the same compound?
A: 2.5

Q: And the “Stool Character (group's average score)” value (Male HLA-B27 rats [4]; oral 20 mg/kg once per day (10 mg/kg days 1-18), Day 23)?
A: 2.25

Q: What about the “Stool Character (group's average score)” value (Male HLA-B27 rats [4]; oral 20 mg/kg once per day (10 mg/kg days 1-18), Day 24) of the same compound?
A: 1.75

Q: What about the “Stool Character (group's average score)” value (Male HLA-B27 rats [4]; oral 20 mg/kg once per day (10 mg/kg earlier), Day 25) of the same compound?
A: 2

Q: What about the “Stool Character (group's average score)” value (Male HLA-B27 rats [4]; oral 20 mg/kg once per day (10 mg/kg earlier), Day 26) of the same compound?
A: 2

Q: And the “Stool Character (group's average score)” value (Male HLA-B27 rats [4]; oral 20 mg/kg once per day (10 mg/kg earlier), Day 27)?
A: 2

Q: And the “Stool Character (group's average score)” value (Male HLA-B27 rats [4]; oral 20 mg/kg once per day (10 mg/kg earlier), Day 28)?
A: 2

Q: What about the “Stool Character (group's average score)” value (Male HLA-B27 rats [4]; oral 20 mg/kg once per day (10 mg/kg earlier), Day 29) of the same compound?
A: 2

Q: What about the “Stool Character (group's average score)” value (Male HLA-B27 rats [4]; oral 20 mg/kg once per day (10 mg/kg earlier), Day 30) of the same compound?
A: 2.25

Q: What about the “Stool Character (group's average score)” value (Male HLA-B27 rats [4]; oral 20 mg/kg once per day (10 mg/kg earlier), Day 31) of the same compound?
A: 2.25

Q: What about the “Stool Character (group's average score)” value (Male HLA-B27 rats [4]; oral 20 mg/kg once per day (10 mg/kg earlier), Day 32) of the same compound?
A: 2

Q: And the “Stool Character (group's average score)” value (Male HLA-B27 rats [4]; oral 20 mg/kg once per day (10 mg/kg earlier), Day 33)?
A: 1.5

Q: What about the “Stool Character (group's average score)” value (Male HLA-B27 rats [4]; oral 20 mg/kg once per day (10 mg/kg earlier), Day 34) of the same compound?
A: 1.75

Q: What about the “Stool Character (group's average score)” value (Male HLA-B27 rats [4]; oral 20 mg/kg once per day (10 mg/kg earlier), Day 35) of the same compound?
A: 1.5

Q: What about the “Stool Character (group's average score)” value (Male HLA-B27 rats [4]; oral 20 mg/kg once per day (10 mg/kg earlier), Day 36) of the same compound?
A: 1.75

Q: And the “Stool Character (group's average score)” value (Male HLA-B27 rats [4]; oral 20 mg/kg once per day (10 mg/kg earlier), Day 37)?
A: 1.5

Q: And the “Stool Character (group's average score)” value (Male HLA-B27 rats [4]; oral 20 mg/kg once per day (10 mg/kg earlier), Day 38)?
A: 1.5

Q: What about the “Stool Character (group's average score)” value (Male HLA-B27 rats [4]; oral 20 mg/kg once per day (10 mg/kg earlier), Day 39) of the same compound?
A: 2

Q: What about the “Stool Character (group's average score)” value (Male HLA-B27 rats [4]; oral 20 mg/kg once per day (10 mg/kg earlier), Day 40) of the same compound?
A: 1.75

Q: What about the “Stool Character (group's average score)” value (Male HLA-B27 rats [4]; oral 20 mg/kg once per day (10 mg/kg earlier), Day 41) of the same compound?
A: 2

Q: What about the “Stool Character (group's average score)” value (Male HLA-B27 rats [4]; oral 20 mg/kg once per day (10 mg/kg earlier), Day 42) of the same compound?
A: 2

Q: And the “Stool Character (group's average score)” value (Male HLA-B27 rats [4]; oral 20 mg/kg once per day (10 mg/kg earlier), Day 43)?
A: 2

Q: What about the “Stool Character (group's average score)” value (Male HLA-B27 rats [4]; oral 20 mg/kg once per day (10 mg/kg earlier), Day 44) of the same compound?
A: 2

Q: What about the “Stool Character (group's average score)” value (Male HLA-B27 rats [4]; oral 20 mg/kg once per day (10 mg/kg earlier), Day 45) of the same compound?
A: 2

Q: What about the “Stool Character (group's average score)” value (Male HLA-B27 rats [4]; oral 20 mg/kg once per day (10 mg/kg earlier), Day 46) of the same compound?
A: 2

Q: What about the “Scores on all disease parameters versus vehicle” value (Male HLA-B27 rats [5]; oral) of the same compound?
A: although not statistically significant, were lower than corresponding scores from vehicle-treated rats

Q: What about the “Fibrosis (0-2), mean ± SD” value (Male HLA-B27 rats [5]; [8]) of the same compound?
A: 0.56 ± 0.32

Q: What about the “Inflammation (0-3), mean ± SD” value (Male HLA-B27 rats [5]; [8]) of the same compound?
A: 2.06 ± 0.43

Q: What about the “Lesion depth (0-2), mean ± SD” value (Male HLA-B27 rats [5]; [8]) of the same compound?
A: 0.75 ± 0.50

Q: And the “Total score, mean ± SD” value (Male HLA-B27 rats [5]; [8])?
A: 4.19 ± 1.74

Q: And the “Ulceration (0-2), mean ± SD” value (Male HLA-B27 rats [5]; [8])?
A: 0.81 ± 0.47

Q: What about the Joint inflammation score (Male HLA-B27 rats [6]; Day 29) of the same compound?
A: 0.75

Q: What about the Joint inflammation score (Male HLA-B27 rats [6]; Day 30) of the same compound?
A: 1.75

Q: What about the Joint inflammation score (Male HLA-B27 rats [6]; Day 31) of the same compound?
A: 1.25

Q: And the Joint inflammation score (Male HLA-B27 rats [6]; Day 32)?
A: 0.75

Q: And the Joint inflammation score (Male HLA-B27 rats [6]; Day 33)?
A: 1

Q: And the Joint inflammation score (Male HLA-B27 rats [6]; Day 34)?
A: 1.25

Q: And the Joint inflammation score (Male HLA-B27 rats [6]; Day 35)?
A: 2.25

Q: What about the Joint inflammation score (Male HLA-B27 rats [6]; Day 36) of the same compound?
A: 1

Q: And the Joint inflammation score (Male HLA-B27 rats [6]; Day 37)?
A: 4

Q: And the Joint inflammation score (Male HLA-B27 rats [6]; Day 38)?
A: 1.5

Q: And the Joint inflammation score (Male HLA-B27 rats [6]; Day 39)?
A: 1.5

Q: What about the Joint inflammation score (Male HLA-B27 rats [6]; Day 40) of the same compound?
A: 2.25

Q: And the Joint inflammation score (Male HLA-B27 rats [6]; Day 41)?
A: 2.25

Q: And the Joint inflammation score (Male HLA-B27 rats [6]; Day 42)?
A: 1.5

Q: What about the Joint inflammation score (Male HLA-B27 rats [6]; Day 43) of the same compound?
A: 1.25

Q: And the Joint inflammation score (Male HLA-B27 rats [6]; Day 44)?
A: 1

Q: And the Joint inflammation score (Male HLA-B27 rats [6]; Day 45)?
A: 2.5

Q: And the Joint inflammation score (Male HLA-B27 rats [6]; Day 46)?
A: 2

Q: What about the “Mankin score (mean ± SD)” value (Male HLA-B27 rats [7]) of the same compound?
A: 4.6 ± 0.9

Q: What about the “Synovitis score (mean ± SD)” value (Male HLA-B27 rats [7]) of the same compound?
A: 6.1 ± 0.75
